Test results reported in patent US8227240B2, “Systems for screening pharmaceutical chemicals” (The Washington University, priority 2001, dated 2012).

System: bio-artificial tissues including chicken embryo fibroblasts
Assay: Tissue indentation device: stiffness and active cell force after CD (Example 16)
Type: cell-based
Method: Bio-artificial tissues were generated by mixing cells and neutralized collagen, as described elsewhere (Wakatsuki et al., 2000, Biophys. J. 79:2353-2368). Briefly, cells were mixed with neutralized rat-tail collagen (Millipore Billerica, Mass.) and media containing 10% Fetal Bovine Serum (FBS). 200-250[…]1 of this solution is poured into wells as described below. The tissues are cultured in Dulbecco's modified Eagle's medium (DMEM) supplemented with 10% FBS and antibiotics (penicillin and streptomycin) in an incubator for two or three days. The bio-artificial tissue membrane was stretched using a mechanical testing device is (as detailed below). During the mechanical measurements, culture medium was switched to a HEPES-buffered DMEM, pH 7.4, and maintained at 37° C.
Cells used in this study included: (1) rat embryo fibroblasts (REF52 cell line) maintained in DMEM supplemented with 10% FBS split once a week (kind gift from Dr. Wysolmerski, Department of Neurobiology and Anatomy, West Virginia University School of Medicine), (2) chicken embryo fibroblasts (CEFs) isolated from 10 day old chicken embryos using a previously described protocol (Wakatsuki et al., 2000, Biophys. J. 79(5):2353-2368) maintained in DMEM supplemented with 3% FBS (passage 2 to 5), and (3) smooth muscle cells (SMC) isolated from adult rat aorta using a previously described protocol (Griendling et al., 1991, J. Biol. Chem. 266(23):15498-15504) cultured in DMEM supplemented with 10% FBS and 1% […] (passage 10-12).
A chamber to hold 8 bio-artificial tissues was machined from a polycarbonate bar (25×60×10 mm) using a tabletop CNC mill (Sherline Products Inc., Vista, Calif.). The 8 square wells of 8×8 mm contained 2 horizontal stainless-steel (medical grade) bars (1 mm diameter) which centers were located 2 mm above bottom and 2 mm beside each wall and were 4 mm apart (FIG. 29A). A microscope cover-slip (No. 1 thickness, Fisher brand) sealed the bottom of wells using silicon glue (Dow chemicals) to facilitate microscopic imaging of cells and bio-artificial tissues. A pre-polymerized solution of bio-artificial tissues was poured into the wells until the horizontal bars became immersed to half of its depth. During tissue culture, the solution gelled and entrapped cells that remodeled and compacted the gel (Tranquillo, 1999, Biochem. Soc. Symp. 65:27-42) by cell traction force. By the next day, the bio-artificial tissues detached from the bottom and side wall to form a membrane spanning between the two bars. The bio-artificial tissues stiffened to form a thin layer of tissue overlaying the bars and generated active tension within the bio-artificial tissues. The chambers were sterilized by UV before usage and kept in a 100 mm sterile Petri dish to avoid any contamination.
The mechanical testing device is depicted in FIG. 29A. A horizontal linear actuator (FIG. 29A-a, ER32-SRN300A, Parker, Wadsworth, Ohio) automatically places the center of each well at right angles below a force-probe (FIG. 29A-c). The bottom of L-shaped probe indents and bends the bio-artificial tissues at the middle (FIG. 29D). The other end of the probe is connected to an isometric force transducer (FIG. 29A-b, model 52-9545, Harvard Apparatus, South Natick, Mass.) and moved by a vertical linear actuator (FIG. 29A-a, ER32-SRN100A, Parker, Wadsworth, Ohio). During the tests, the temperature of bio-artificial tissues in the wells was maintained at 37° C. using a water jacketed warm plate (FIG. 29A-e) connected to a circulating water bath (HAAKE C10-P5, Thermo Fisher Scientific, Inc. Waltham, Mass.). The linear actuators were controlled simultaneously by a personal computer that also recorded the signal generated by the force transducer. The bio-artificial tissues can be quickly placed in a holder at its designated position for mechanical measurements. A time dependent function to lengthen and shorten bio-artificial tissues was predetermined using the computer software of the device. […]

## C=C1[C@@H](C)[C@H]2[C@H](Cc3ccccc3)NC(=O)[C@]23[C@H](OC(C)=O)/C=C/[C@@](C)(O)C(=O)[C@@H](C)C/C=C/[C@H]3[C@@H]1O [CD, cytochalasin D]
200 pM to 2 μM CD, two hours post-treatment
  pre-force (active cell force, CD treatment over control): concentration-dependent reduction
[CD] 0.2 nM
  EACD/EACT (ratio of post- over pre- CD treated stiffness): 0.932 ± 0.013
  zCD-zCT (difference in sample surface height between post- and pre- CD treated samples): −8.925 ± 9.257 μm
[CD] 0.9 nM
  EACD/EACT (ratio of post- over pre- CD treated stiffness): 0.938 ± 0.016
  zCD-zCT (difference in sample surface height between post- and pre- CD treated samples): −21.761 ± 8.982 μm
[CD] 4 nM
  EACD/EACT (ratio of post- over pre- CD treated stiffness): 0.986 ± 0.015
  zCD-zCT (difference in sample surface height between post- and pre- CD treated samples): −23.707 ± 13.222 μm
[CD] 20 nM
  EACD/EACT (ratio of post- over pre- CD treated stiffness): 0.979 ± 0.013
  zCD-zCT (difference in sample surface height between post- and pre- CD treated samples): 4.550 ± 7.653 μm
[CD] 90 nM
  EACD/EACT (ratio of post- over pre- CD treated stiffness): 0.970 ± 0.016
  zCD-zCT (difference in sample surface height between post- and pre- CD treated samples): −22.054 ± 12.989 μm
[CD] 400 nM
  EACD/EACT (ratio of post- over pre- CD treated stiffness): 0.964 ± 0.021
  zCD-zCT (difference in sample surface height between post- and pre- CD treated samples): −17.607 ± 6.533 μm
[CD] 2000 nM
  EACD/EACT (ratio of post- over pre- CD treated stiffness): 1.077 ± 0.050
  zCD-zCT (difference in sample surface height between post- and pre- CD treated samples): −35.318 ± 15.189 μm
After the CD treatment
  EA (mechanical properties of extracellular matrix): did not change at all
